Source: ChEMBL document CHEMBL1649331, “Determination of CEM-101 activity tested against clinical isolates of Neisseria meningitidis from a worldwide collection” (2010)
In brackets after ≈: the same amount, converted by molar mass.

What was measured:
Assay type in all cases: functional
[1] = tested on: Neisseria meningitidis; assay: Antimicrobial activity against Neisseria meningitidis by broth microdilution method
[2] = tested on: Neisseria meningitidis; assay: Antimicrobial activity against Neisseria meningitidis assessed as susceptible isolate by broth microdilution method
[3] = tested on: Neisseria meningitidis; assay: Antimicrobial activity against Neisseria meningitidis assessed as resistant isolate by broth microdilution method

Row | SMILES | MIC [1] | MIC50 [1] | MIC90 [1] | Activity [2] | Activity [3]
1 | CC[C@H]1OC(=O)[C@H](C)[C@@H](O[C@H]2C[C@@](C)(OC)[C@@H](O)[C@H](C)O2)[C@H](C)[C@@H](O[C@@H]2O[C@H](C)C[C@H](N(C)C)[C@H]2O)[C@](C)(O)C[C@@H](C)CN(C)[C@H](C)[C@@H](O)[C@]1(C)O [AZITHROMYCIN] | ≤ 0.015 µg/mL | 0.06 µg/mL (≈ 0.0801 µM) | 0.12 µg/mL (≈ 0.16 µM) | 100% | 
2 | CO/N=C(\C(=O)N[C@@H]1C(=O)N2C(C(=O)O)=C(CSc3nc(=O)c(O)nn3C)CS[C@H]12)c1csc(N)n1 [CEFTRIAXONE] |  | ≤ 0.015 µg/mL | ≤ 0.015 µg/mL | 100% | 
3 | O=C(O)c1cn(C2CC2)c2cc(N3CCNCC3)c(F)cc2c1=O [CIPROFLOXACIN] |  |  |  | 97.1% | 1.9%
4 | C[C@H]1COc2c(N3CCN(C)CC3)c(F)cc3c(=O)c(C(=O)O)cn1c23.C[C@H]1COc2c(N3CCN(C)CC3)c(F)cc3c(=O)c(C(=O)O)cn1c23.O [LEVOFLOXACIN] | ≤ 0.008 µg/mL | ≤ 0.008 µg/mL | ≤ 0.008 µg/mL | 97.1% | 1.9%
5 | CN(C)c1ccc(O)c2c1C[C@H]1C[C@H]3[C@H](N(C)C)C(O)=C(C(N)=O)C(=O)[C@@]3(O)C(O)=C1C2=O [MINOCYCLINE] | ≤ 0.015 µg/mL | 0.12 µg/mL (≈ 0.262 µM) | 0.25 µg/mL (≈ 0.546 µM) | 100% | 0%
6 | CC1(C)S[C@@H]2[C@H](NC(=O)Cc3ccccc3)C(=O)N2[C@H]1C(=O)O [PENICILLIN G] | ≤ 0.015 µg/mL | 0.03 µg/mL (≈ 0.0897 µM) | 0.12 µg/mL (≈ 0.359 µM) | 84.5% | 0%
7 | CO[C@H]1/C=C/O[C@@]2(C)Oc3c(C)c(O)c4c(O)c(c(/C=N/N5CCN(C)CC5)c(O)c4c3C2=O)NC(=O)/C(C)=C\C=C\[C@H](C)[C@H](O)[C@@H](C)[C@@H](O)[C@@H](C)[C@H](OC(C)=O)[C@@H]1C [RIFAMPIN] |  | 0.015 µg/mL (≈ 0.0182 µM) | 0.03 µg/mL (≈ 0.0365 µM) | 100% | 0%

Now from value to compound, other results behind:

Row | MIC [1] | MIC50 [1] | MIC90 [1] | SMILES | Activity [2] | Activity [3]
8 | ≤ 0.015 µg/mL | 0.03 µg/mL (≈ 0.0401 µM) | 0.12 µg/mL (≈ 0.16 µM) | CC[C@H]1OC(=O)[C@H](C)[C@@H](O[C@H]2C[C@@](C)(OC)[C@@H](O)[C@H](C)O2)[C@H](C)[C@@H](O[C@@H]2O[C@H](C)C[C@H](N(C)C)[C@H]2O)[C@](C)(OC)C[C@@H](C)C(=O)[C@H](C)[C@@H](O)[C@]1(C)O [CLARITHROMYCIN] |  | 
9 | ≤ 0.03 µg/mL | 0.12 µg/mL (≈ 0.164 µM) | 0.25 µg/mL (≈ 0.341 µM) | CC[C@H]1OC(=O)[C@H](C)[C@@H](O[C@H]2C[C@@](C)(OC)[C@@H](O)[C@H](C)O2)[C@H](C)[C@@H](O[C@@H]2O[C@H](C)C[C@H](N(C)C)[C@H]2O)[C@](C)(O)C[C@@H](C)C(=O)[C@H](C)[C@@H](O)[C@]1(C)O [ERYTHROMYCIN] |  | 
10 | ≤ 0.015 µg/mL | ≤ 0.015 µg/mL | ≤ 0.015 µg/mL | CC[C@H]1OC(=O)[C@@](C)(F)C(=O)[C@H](C)[C@@H](O[C@@H]2O[C@H](C)C[C@H](N(C)C)[C@H]2O)[C@](C)(OC)C[C@@H](C)C(=O)[C@H](C)[C@H]2N(CCCCn3cc(-c4cccc(N)c4)nn3)C(=O)O[C@]12C [SOLITHROMYCIN] |  | 
11 | ≤ 0.015 µg/mL | ≤ 0.015 µg/mL | 0.03 µg/mL (≈ 0.0369 µM) | CC[C@H]1OC(=O)[C@H](C)C(=O)[C@H](C)[C@@H](O[C@@H]2O[C@H](C)C[C@H](N(C)C)[C@H]2O)[C@](C)(OC)C[C@@H](C)C(=O)[C@H](C)[C@H]2N(CCCCn3cnc(-c4cccnc4)c3)C(=O)O[C@]12C [TELITHROMYCIN] |  | 
